For five compounds, LC50, RatioLC50 and mortality results are on record in ChEMBL document CHEMBL3045168, “Thiamethoxam acts as a target-site synergist of spinosad in resistant strains of Frankliniella occidentalis” (2013).

Test [1] has as its system Frankliniella occidentalis. Kind of test: Insecticidal activity against Frankliniella occidentalis R1S (western flower thrips) in compound treated sweet pepper leaf assessed as mortality at 25 +/- 2 degC by leaf dip method. Conditions: in Capsicum annuum, foliar. The test is classed as functional.
For test [2], the system named is Frankliniella occidentalis. Kind of test: Insecticidal activity against Frankliniella occidentalis PPP (western flower thrips) in compound treated sweet pepper leaf assessed as mortality at 25 +/- 2 degC by leaf dip method. The test is classed as functional. Conditions: in Capsicum annuum, foliar.
The test system of test [3] is Frankliniella occidentalis. Kind of test: Insecticidal activity against Frankliniella occidentalis TFB (western flower thrips) in compound treated sweet pepper leaf assessed as mortality at 25 +/- 2 degC by leaf dip method. The test is classed as functional. The following applies: in Capsicum annuum, foliar.
The test system of test [4] is Frankliniella occidentalis. Kind of test: Resistance factor, LC50 for Frankliniella occidentalis R1S (western flower thrips) to LC50 for Frankliniella occidentalis TFR. The test is classed as functional.
Test [5] concerns Frankliniella occidentalis. Kind of test: Resistance factor, LC50 for Frankliniella occidentalis PPP (western flower thrips) to LC50 for Frankliniella occidentalis TFR. The test is classed as functional.
The test system of test [6] is Frankliniella occidentalis. Kind of test: Insecticidal activity against Frankliniella occidentalis SPI5 (western flower thrips) in compound treated sweet pepper leaf assessed as mortality at 150 mg/l at 25 +/- 2 degC by leaf dip method. Conditions: SPI5, in Capsicum annuum, foliar. It counts as functional.
Test [7] concerns Frankliniella occidentalis. Kind of test: Insecticidal activity against Frankliniella occidentalis TFA (western flower thrips) in compound treated sweet pepper leaf assessed as mortality at 150 mg/l at 25 +/- 2 degC by leaf dip method. It counts as functional. Conditions: in Capsicum annuum, foliar.
Test [8] has as its system Frankliniella occidentalis. Kind of test: Insecticidal activity against Frankliniella occidentalis R1 (western flower thrips) in compound treated sweet pepper leaf assessed as mortality at 150 mg/l at 25 +/- 2 degC by leaf dip method. It counts as functional. Conditions: R1, in Capsicum annuum, foliar.
The subject of test [9] is Frankliniella occidentalis. Kind of test: Insecticidal activity against Frankliniella occidentalis TFB (western flower thrips) in compound treated sweet pepper leaf assessed as mortality at 150 mg/l at 25 +/- 2 degC by leaf dip method. The test is classed as functional. The following applies: in Capsicum annuum, foliar.
The test system of test [10] is Frankliniella occidentalis. Kind of test: Insecticidal activity against Frankliniella occidentalis R1S (western flower thrips) in compound treated sweet pepper leaf assessed as mortality at 1000 mg/l at 25 +/- 2 degC by leaf dip method. The following applies: in Capsicum annuum, foliar.
For test [11], the system named is Frankliniella occidentalis. Kind of test: Insecticidal activity against Frankliniella occidentalis TFB (western flower thrips) in compound treated sweet pepper leaf assessed as mortality at 216 mg/l at 25 +/- 2 degC by leaf dip method. It counts as functional. The following applies: in Capsicum annuum, foliar.
Test [12] concerns Frankliniella occidentalis. Kind of test: Insecticidal activity against Frankliniella occidentalis SPI5 (western flower thrips) in compound treated sweet pepper leaf assessed as mortality at 216 mg/l at 25 +/- 2 degC by leaf dip method. The test is classed as functional. Conditions: SPI5, in Capsicum annuum, foliar.
The test system of test [13] is Frankliniella occidentalis. Kind of test: Insecticidal activity against Frankliniella occidentalis TFA (western flower thrips) in compound treated sweet pepper leaf assessed as mortality at 216 mg/l at 25 +/- 2 degC by leaf dip method. It counts as functional. The following applies: in Capsicum annuum, foliar.
Test [14] deals with Frankliniella occidentalis. Kind of test: Insecticidal activity against Frankliniella occidentalis R1 (western flower thrips) in compound treated sweet pepper leaf assessed as mortality at 216 mg/l at 25 +/- 2 degC by leaf dip method. The test is classed as functional. The following applies: R1, in Capsicum annuum, foliar.
In test [15] the test system is Frankliniella occidentalis. Kind of test: Insecticidal activity against Frankliniella occidentalis SPI5 (western flower thrips) in compound treated sweet pepper leaf assessed as mortality at 50 mg/l at 25 +/- 2 degC by leaf dip method. The test is classed as functional. The following applies: SPI5, in Capsicum annuum, foliar.
Test [16] deals with Frankliniella occidentalis. Kind of test: Insecticidal activity against Frankliniella occidentalis TFA (western flower thrips) in compound treated sweet pepper leaf assessed as mortality at 50 mg/l at 25 +/- 2 degC by leaf dip method. The following applies: in Capsicum annuum, foliar. It counts as functional.
For test [17], the system named is Frankliniella occidentalis. Kind of test: Insecticidal activity against Frankliniella occidentalis R1 (western flower thrips) in compound treated sweet pepper leaf assessed as mortality at 50 mg/l at 25 +/- 2 degC by leaf dip method. It counts as functional. Conditions: R1, in Capsicum annuum, foliar.
The test system of test [18] is Frankliniella occidentalis. Kind of test: Insecticidal activity against Frankliniella occidentalis TFB (western flower thrips) in compound treated sweet pepper leaf assessed as mortality at 50 mg/l at 25 +/- 2 degC by leaf dip method. Conditions: in Capsicum annuum, foliar. The test is classed as functional.
Test [19] relates to Frankliniella occidentalis. Kind of test: Insecticidal activity against Frankliniella occidentalis MOJO (western flower thrips) in compound treated sweet pepper leaf assessed as mortality at 25 +/- 2 degC by leaf dip method. It counts as functional. The following applies: in Capsicum annuum, foliar.
For test [20], the system named is Frankliniella occidentalis. Kind of test: Insecticidal activity against Frankliniella occidentalis TF (western flower thrips) in compound treated sweet pepper leaf assessed as mortality at 25 +/- 2 degC by leaf dip method. It counts as functional. Conditions: in Capsicum annuum, foliar.
The subject of test [21] is Frankliniella occidentalis. Kind of test: Resistance factor, LC50 for Frankliniella occidentalis R1S (western flower thrips) to LC50 for Frankliniella occidentalis TF. The test is classed as functional.
Test [22] deals with Frankliniella occidentalis. Kind of test: Resistance factor, LC50 for Frankliniella occidentalis MOJO (western flower thrips) to LC50 for Frankliniella occidentalis TF. The test is classed as functional.
The test system of test [23] is Frankliniella occidentalis. Kind of test: Insecticidal activity against Frankliniella occidentalis R1S (western flower thrips) in compound treated sweet pepper leaf assessed as mortality at 50 mg/l at 25 +/- 2 degC by leaf dip method. The test is classed as functional. The following applies: in Capsicum annuum, foliar.

In brackets after ≈: the same amount, converted by molar mass.

Turning to `C/C(=N\C#N)N(C)Cc1ccc(Cl)nc1` [ACETAMIPRID], the LC50 worked out at 119 µg/mL (≈ 534 µM) in [1], 116 µg/mL (≈ 521 µM) in [2] and 663 µg/mL (≈ 2980 µM) in test [3]. Besides, the RatioLC50 in test [4] and in test [5] was 0.2 each time.

For the compound `O=[N+]([O-])/N=C1\NCCN1Cc1ccc(Cl)nc1` [IMIDACLOPRID], the mortality at 150 µg/mL stood at 0% in test [6], 6.7% in test [7], 10% in test [8] and 3.3% in test [9].

Regarding `CCCCOCCOCCOCc1cc2c(cc1CCC)OCO2` [PIPERONYL BUTOXIDE], the mortality at 1000 µg/mL in [10] amounted to 10%.

For `N#C/N=C1\SCCN1Cc1ccc(Cl)nc1` [THIACLOPRID], the mortality at 216 µg/mL in test [11] was determined as 10%; in test [12] it was 3.3%; in test [13], 3.3%; in test [14], 0%.

Take `CN1COCN(Cc2cnc(Cl)s2)/C1=N\[N+](=O)[O-]` [THIAMETHOXAM]: the LC50 in [1] is 298 µg/mL (≈ 1020 µM); in test [2] it was 1670 µg/mL (≈ 5740 µM); in test [3], 352 µg/mL (≈ 1210 µM); in [19], 209 µg/mL (≈ 717 µM); in [20], 158 µg/mL (≈ 541 µM). For the same compound, the mortality at 50 µg/mL amounted to 13.3% in test [15]; 10% in [16]; 16.7% in [17]; 20% in [18]; 0% in test [23]. Besides, the RatioLC50 is given as 3 in [21], 1 in test [22], 0.8 in [4] and 4.8 in test [5].
